Measured values published in patent publication US20090012103A1, “SUBSTITUTED HETEROCYCLIC COMPOUNDS” (priority 2007, published 2009).

Columns and labels:
[1] = target: T1, wild-type human cardiac sodium channel, hNav1.5 (Homo sapiens, UniProt Q14524); assay: Peak INa screening assay (tonic block TB and use-dependent block UDB of peak sodium current); type: cell-based; details: compound at 10 μM
Method: The late sodium current (Late INa) and peak sodium current (Peak INa) assays are performed on an automated electrophysiology platform, PatchXpress 7000A (MDS Analytical Technologies, Sunnyvale, Calif.), which uses the whole cell patch clamp technique to measure currents through the cell membrane of up to 16 cells at a time. The assay uses an HEK293 (human embryonic kidney) cell line heterologously expressing the wild-type human cardiac sodium channel, hNav1.5, purchased from Millipore (Billerica, Mass.). No beta subunits were coexpressed with the Na channel alpha subunit. […] Experiments are carried out at 24-27° C.
For both the Late INa and Peak INa assays, series resistance compensation is set to 50% and whole-cell compensation is performed automatically. […] Currents through open sodium channels are automatically recorded and stored in the DataXpress2 database (MDS Analytical Technologies, Sunnyvale, Calif.). Analysis is performed using DataXpress2 analysis software and data are compiled in Excel.
Compound stocks are routinely made in glass vials to 10 mM in dimethyl sulfoxide (DMSO). In some cases, when compounds are not soluble in DMSO, they are made in 100% ethanol. Stocks are sonicated as necessary. The extracellular solution for screening Late INa is composed of: 140 mM NaCl, 4 mM KCl, 1.8 mM CaCl2, 0.75 mM MgCl2, and 5 mM HEPES with pH adjusted to 7.4 using NaOH. The extracellular solution for screening Peak INa is composed of: 20 mM NaCl, 120 mM N-methyl-D glucamine, 4 mM KCl, 1.8 mM CaCl2, 0.75 mM MgCl2, and 5 mM HEPES with pH adjusted to 7.4 using HCl. The intracellular solution used to perfuse the inside of the cells for both the Late INa and Peak INa assays contains: 120 mM CsF, 20 mM CsCl, 5 mM EGTA, 5 mM HEPES and pH adjusted to 7.4 with CsOH. Compounds are diluted in extracellular solution to 10 μM in glass vials and then transferred to glass well plates before robotic addition to the cells. The 0 Na extracellular solution used at the end of each experiment for the Late INa and Peak INa assays to measure baseline current contains: 140 mM N-methyl-D-glucamine; 4 mM KCl; 1.8 mM CaCl2; 0.75 mM MgCl2; 5 mM HEPES and pH was adjusted to 7.4 with HCl.
Compounds were also evaluated for their effect in several other assays, including their effect on Peak INa. In some cases, the effect on Peak INa was measured using data from the Late INa assay. […] Since the peak INa can be very large, introducing artifacts in the recording, the concentration of Na^+ in the bath is reduced to 20 mM and a nonpermeant cation is added to compensate for the Na^+ that was omitted from the standard extracellular solution (see above). The peak INa assay uses a holding potential of −100 mV and a 20 ms test pulse to 0 mV to activate the channel. As in the Late INa assay, stepping the voltage to 0 mV causes a rapid increase in negative Na current through hNav1.5 that inactivates within a few ms. No late INa activator is added for the peak assay.
For the separate peak INa assay, both tonic (TB) block and use-dependent (UDB) block of peak inward sodium current by 10 μM compound are determined. TB is block of the channel in the resting state, before the channel opens. TB is simulated in this assay by stimulating the channel to open at a low frequency (0.1 Hz). This is done in order to measure the control current amplitude and monitor current rundown, enabling correction for rundown in the calculation of percent block for TB.

[2] = target: T1, wild-type human cardiac sodium channel, hNav1.5; assay: Late INa screening assay (late sodium current, PatchXpress whole cell patch clamp); type: cell-based; details: compound at 10 μM; read-out: Late INa % blk
[3] = tonic block, read-out: Tonic Peak INa % blk
[4] = use-dependent block, read-out: UDB Peak INa % blk

T1 sequence (Q14524 whole entry): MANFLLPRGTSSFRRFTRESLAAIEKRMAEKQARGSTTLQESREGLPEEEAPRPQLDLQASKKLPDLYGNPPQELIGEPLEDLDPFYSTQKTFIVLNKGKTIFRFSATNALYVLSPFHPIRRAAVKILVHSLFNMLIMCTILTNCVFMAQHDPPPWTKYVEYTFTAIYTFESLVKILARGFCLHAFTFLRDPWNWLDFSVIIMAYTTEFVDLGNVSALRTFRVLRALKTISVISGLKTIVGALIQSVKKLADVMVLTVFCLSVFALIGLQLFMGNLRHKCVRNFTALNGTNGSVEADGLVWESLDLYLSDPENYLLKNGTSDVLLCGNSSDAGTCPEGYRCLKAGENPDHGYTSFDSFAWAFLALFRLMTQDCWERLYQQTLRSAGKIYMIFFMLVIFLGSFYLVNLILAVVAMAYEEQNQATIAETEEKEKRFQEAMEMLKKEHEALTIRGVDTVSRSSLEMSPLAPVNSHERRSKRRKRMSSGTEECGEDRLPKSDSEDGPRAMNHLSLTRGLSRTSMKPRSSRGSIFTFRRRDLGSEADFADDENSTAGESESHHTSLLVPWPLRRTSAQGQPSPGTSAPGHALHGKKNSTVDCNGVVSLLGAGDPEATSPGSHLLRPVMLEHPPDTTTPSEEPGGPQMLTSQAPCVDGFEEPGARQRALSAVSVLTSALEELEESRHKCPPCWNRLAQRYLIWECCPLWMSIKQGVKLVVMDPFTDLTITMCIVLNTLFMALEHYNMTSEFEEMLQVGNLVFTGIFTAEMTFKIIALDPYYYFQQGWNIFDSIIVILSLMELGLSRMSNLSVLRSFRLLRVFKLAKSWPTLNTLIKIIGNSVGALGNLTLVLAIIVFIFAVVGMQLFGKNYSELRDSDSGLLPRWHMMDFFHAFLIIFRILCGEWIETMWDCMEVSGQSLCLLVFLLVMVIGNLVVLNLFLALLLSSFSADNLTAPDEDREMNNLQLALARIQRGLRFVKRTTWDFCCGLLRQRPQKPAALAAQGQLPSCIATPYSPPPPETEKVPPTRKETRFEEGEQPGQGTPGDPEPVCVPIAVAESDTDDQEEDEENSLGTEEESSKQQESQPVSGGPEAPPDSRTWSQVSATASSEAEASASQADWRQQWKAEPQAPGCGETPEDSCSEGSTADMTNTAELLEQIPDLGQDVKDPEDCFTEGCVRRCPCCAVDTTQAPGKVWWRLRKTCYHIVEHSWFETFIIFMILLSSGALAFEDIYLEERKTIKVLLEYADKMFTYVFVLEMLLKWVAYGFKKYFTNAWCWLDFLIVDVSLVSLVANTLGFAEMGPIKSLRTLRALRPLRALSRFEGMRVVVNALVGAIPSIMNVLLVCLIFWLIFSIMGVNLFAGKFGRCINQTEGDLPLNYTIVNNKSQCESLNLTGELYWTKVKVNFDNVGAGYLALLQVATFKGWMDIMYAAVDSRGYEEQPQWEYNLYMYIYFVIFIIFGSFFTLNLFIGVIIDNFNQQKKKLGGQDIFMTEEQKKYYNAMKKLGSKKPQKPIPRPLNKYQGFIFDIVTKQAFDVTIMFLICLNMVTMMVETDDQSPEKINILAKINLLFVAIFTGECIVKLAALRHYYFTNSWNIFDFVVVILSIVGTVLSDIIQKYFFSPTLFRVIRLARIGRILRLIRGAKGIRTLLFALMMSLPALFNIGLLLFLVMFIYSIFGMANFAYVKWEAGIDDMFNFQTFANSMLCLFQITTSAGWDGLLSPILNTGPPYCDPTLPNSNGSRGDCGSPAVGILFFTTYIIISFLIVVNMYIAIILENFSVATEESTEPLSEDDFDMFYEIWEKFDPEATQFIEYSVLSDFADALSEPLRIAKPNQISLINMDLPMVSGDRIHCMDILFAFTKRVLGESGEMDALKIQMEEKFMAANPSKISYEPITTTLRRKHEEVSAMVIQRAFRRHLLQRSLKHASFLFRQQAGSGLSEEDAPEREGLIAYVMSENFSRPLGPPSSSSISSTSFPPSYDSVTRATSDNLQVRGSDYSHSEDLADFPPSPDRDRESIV

SMILES: CC1=C(C(=O)O[C@@H](C)c2ccccc2)C(c2sc3ccccc3c2C)n2nccc2N1 (stereo partly drawn) [PT-244, (S)-1-phenylethyl 5-methyl-7-(3-methylbenzo[b]thiophen-2-yl)-4,7-dihydropyrazolo[1,5-a]pyrimidine-6-carboxylate]
- inhibition at 10 µM [1, 3]: 66.2%
- inhibition at 10 µM [1, 4]: 44%
- inhibition at 10 µM [2]: 68.7%

SMILES: COc1ccccc1COC(=O)C1=C(C)Nc2nnnn2C1c1c(C)cccc1C (centres unmarked) [PT-262, 2-methoxybenzyl 7-(2,6-dimethylphenyl)-5-methyl-4,7-dihydrotetrazolo[1,5-a]pyrimidine-6-carboxylate]
- inhibition at 10 µM [1, 3]: 15.1%
- inhibition at 10 µM [1, 4]: 6.9%
- inhibition at 10 µM [2]: 70%

SMILES: CC1=C(c2nnc(Cc3ccccc3)o2)C(c2cccc3ccccc23)C2=C(CCCC2=O)N1 (centres unmarked) [PT-276, 3-(5-benzyl-1,3,4-oxadiazol-2-yl)-2-methyl-4-(naphthalen-1-yl)-4,6,7,8-tetrahydroquinolin-5(1H)-one]
- inhibition at 10 µM [1, 3]: 31.3%
- inhibition at 10 µM [1, 4]: 13%
- inhibition at 10 µM [2]: 49.7%

SMILES: CC1=C(C(=O)OCc2ccccc2)C(c2ccc3ccccc3c2)C2=C(CCCC2=O)N1 (centres unmarked) [PT-320, benzyl 2-methyl-4-(naphthalen-2-yl)-5-oxo-1,4,5,6,7,8-hexahydroquinoline-3-carboxylate]
- inhibition at 10 µM [1, 3]: 16.7%
- inhibition at 10 µM [1, 4]: 26.5%
- inhibition at 10 µM [2]: 51%

SMILES: CCOC(=O)[C@@H]1CCCN(c2cc(OC)ccc2C2C(C(=O)OCc3ccccc3)=C(C)Nc3[nH]ncc32)C1 (stereo partly drawn) [PT-327, benzyl 4-(2-((R)-3-(ethoxycarbonyl)piperidin-1-yl)-4-methoxyphenyl)-6-methyl-4,7-dihydro-1H-pyrazolo[3,4-b]pyridine-5-carboxylate]
- inhibition at 10 µM [1, 3]: 18.5%
- inhibition at 10 µM [1, 4]: 9.4%
- inhibition at 10 µM [2]: 35.3%

SMILES: CC1=C(C(=O)OCc2ccccc2)C(c2ccc(N(C)C)c3ccccc23)c2cn[nH]c2N1 (centres unmarked) [PT-332, benzyl 4-(4-(dimethylamino)naphthalen-1-yl)-6-methyl-4,7-dihydro-1H-pyrazolo[3,4-b]pyridine-5-carboxylate]
- inhibition at 10 µM [1, 3]: 11.3%
- inhibition at 10 µM [1, 4]: 2.7%
- inhibition at 10 µM [2]: 20%

SMILES: CC1=C(C(=O)OCc2ccccc2)C(c2occc2-c2ccccc2)n2nnnc2N1 (centres unmarked) [PT-351, benzyl 5-methyl-7-(3-phenylfuran-2-yl)-4,7-dihydrotetrazolo[1,5-a]pyrimidine-6-carboxylate]
- inhibition at 10 µM [1, 3]: 49.9%
- inhibition at 10 µM [2]: 81.6%

SMILES: CC1=C(C(=O)OCc2ccccc2)C(c2sccc2-c2ccccc2)n2nnnc2N1 (centres unmarked) [PT-352, benzyl 5-methyl-7-(3-phenylthiophen-2-yl)-4,7-dihydrotetrazolo[1,5-a]pyrimidine-6-carboxylate]
- inhibition at 10 µM [1, 3]: 17.7%
- inhibition at 10 µM [2]: 76.3%

SMILES: CCOC(=O)[C@@H]1CCCN(c2cc(OC)ccc2C2C(C(=O)OCc3ccccc3)=C(C)Nc3nnnn32)C1 (stereo partly drawn) [PT-373, benzyl 7-(2-((R)-3-(ethoxycarbonyl)piperidin-1-yl)-4-methoxyphenyl)-5-methyl-4,7-dihydrotetrazolo[1,5-a]pyrimidine-6-carboxylate]
- inhibition at 10 µM [1, 3]: 22.5%
- inhibition at 10 µM [2]: 64.9%

SMILES: CC1=C(C(=O)OCc2ccccc2)C(c2ccccc2OCCN(C)C)n2nnnc2N1 (centres unmarked) [PT-374, benzyl 7-(2-(2-(dimethylamino)ethoxy)phenyl)-5-methyl-4,7-dihydrotetrazolo[1,5-a]pyrimidine-6-carboxylate]
- inhibition at 10 µM [1, 3]: 38.7%
- inhibition at 10 µM [2]: 66.3%

SMILES: COc1ccc(-c2sc3ccccc3c2C2C(C(=O)OCc3ccccc3)=C(C)Nc3nnnn32)cc1 (centres unmarked) [PT-379, benzyl 7-(2-(4-methoxyphenyl)benzo[b]thiophen-3-yl)-5-methyl-4,7-dihydrotetrazolo[1,5-a]pyrimidine-6-carboxylate]
- inhibition at 10 µM [1, 3]: 11.1%
- inhibition at 10 µM [1, 4]: 9.8%
- inhibition at 10 µM [2]: 55%

SMILES: COc1cc([N+](=O)[O-])ccc1C1C(C(=O)OCc2ccccc2)=C(C)Nc2ccnn21 (centres unmarked) [PT-394, benzyl 7-(2-methoxy-4-nitrophenyl)-5-methyl-4,7-dihydropyrazolo[1,5-a]pyrimidine-6-carboxylate]
- inhibition at 10 µM [1, 3]: 15.4%
- inhibition at 10 µM [1, 4]: 8%
- inhibition at 10 µM [2]: 45.2%

SMILES: CC1=C(C(=O)OCc2ccccc2)C(c2sccc2Br)n2nnnc2N1 (centres unmarked) [PT-401, benzyl 7-(3-bromothiophen-2-yl)-5-methyl-4,7-dihydrotetrazolo[1,5-a]pyrimidine-6-carboxylate]
- inhibition at 10 µM [1, 3]: 25.9%
- inhibition at 10 µM [2]: 77.3%

SMILES: CC1=C(C(=O)OCc2ccccc2)C(c2cc(C)c(C)s2)n2nnnc2N1 (centres unmarked) [PT-414, benzyl 7-(4,5-dimethylthiophen-2-yl)-5-methyl-4,7-dihydrotetrazolo[1,5-a]pyrimidine-6-carboxylate]
- inhibition at 10 µM [1, 3]: 21.6%
- inhibition at 10 µM [2]: 78%

SMILES: CC1=C(C(=O)OC(c2ccc(F)cc2)c2ccc(F)cc2)C(c2cccs2)n2nnnc2N1 (centres unmarked) [PT-423, bis(4-fluorophenyl)methyl 5-methyl-7-(thiophen-2-yl)-4,7-dihydrotetrazolo[1,5-a]pyrimidine-6-carboxylate]
- inhibition at 10 µM [1, 3]: 18.5%
- inhibition at 10 µM [1, 4]: 20.4%
- inhibition at 10 µM [2]: 67.2%

SMILES: CC1=C(C(=O)OCC2CC2)C(c2c(Br)sc3ccccc23)n2nnnc2N1 (centres unmarked) [PT-426, cyclopropylmethyl 7-(2-bromobenzo[b]thiophen-3-yl)-5-methyl-4,7-dihydrotetrazolo[1,5-a]pyrimidine-6-carboxylate]
- inhibition at 10 µM [1, 3]: 60.1%
- inhibition at 10 µM [1, 4]: 50.7%
- inhibition at 10 µM [2]: 81%

SMILES: CCOC(=O)C1=C(C)NC(C)=C(C(=O)OCC)C1c1ccccc1-c1ccc(NS(C)(=O)=O)cc1 [PT-428, diethyl 2,6-dimethyl-4-(4′-(methylsulfonamido)biphenyl-2-yl)-1,4-dihydropyridine-3,5-dicarboxylate]
- inhibition at 10 µM [1, 3]: 5.3%
- inhibition at 10 µM [1, 4]: 1%
- inhibition at 10 µM [2]: 45.1%

SMILES: CCOC(=O)C1=C(C)Nc2nnnn2C1c1c(Br)sc2ccccc12 (centres unmarked) [PT-489, ethyl 7-(2-bromobenzo[b]thiophen-3-yl)-5-methyl-4,7-dihydrotetrazolo[1,5-a]pyrimidine-6-carboxylate]
- inhibition at 10 µM [1, 3]: 46.2%
- inhibition at 10 µM [1, 4]: 29.2%
- inhibition at 10 µM [2]: 80.7%

SMILES: CCOC(=O)C1=C(C)Nc2nnnn2C1c1ccccc1I (centres unmarked) [PT-492, ethyl 7-(2-iodophenyl)-5-methyl-4,7-dihydrotetrazolo[1,5-a]pyrimidine-6-carboxylate]
- inhibition at 10 µM [1, 3]: 0.3%
- inhibition at 10 µM [2]: 39.3%

SMILES: CCOC(=O)C1=C(C)Nc2nnnn2C1c1cccc(Oc2cccc(C(=O)OCC)c2)c1 (centres unmarked) [PT-494, ethyl 7-(3-(3-(ethoxycarbonyl)phenoxy)phenyl)-5-methyl-4,7-dihydrotetrazolo[1,5-a]pyrimidine-6-carboxylate]
- inhibition at 10 µM [1, 3]: 6.7%
- inhibition at 10 µM [1, 4]: 2%
- inhibition at 10 µM [2]: 71.8%

SMILES: CCOC(=O)C1=C(C)Nc2nnnn2C1c1cccc(OCc2cccc(C(=O)OC)c2)c1 (centres unmarked) [PT-495, ethyl 7-(3-(3-(methoxycarbonyl)benzyloxy)phenyl)-5-methyl-4,7-dihydrotetrazolo[1,5-a]pyrimidine-6-carboxylate]
- inhibition at 10 µM [1, 3]: 20.7%
- inhibition at 10 µM [1, 4]: 11.6%
- inhibition at 10 µM [2]: 54.2%

SMILES: CCOC(=O)C1=C(C)Nc2nnnn2C1c1sccc1-c1cccc(F)c1 (centres unmarked) [PT-496, ethyl 7-(3-(3-fluorophenyl)thiophen-2-yl)-5-methyl-4,7-dihydrotetrazolo[1,5-a]pyrimidine-6-carboxylate]
- inhibition at 10 µM [1, 3]: 36.8%
- inhibition at 10 µM [1, 4]: 9.1%
- inhibition at 10 µM [2]: 84.2%
